Molecules are shown by their SMILES. Like-named read-outs stand apart in the source and are kept apart here.

For assay [1], the system named is primary neuronal cultures from embryonic rat brains. In words: Rat oscillation assay (FLIPR, neuronal calcium oscillations). The format is cell-based. The method, boiled down: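 Cortical neurons from E18 Wistar rat embryos, cultured 8–10 days at high density, loaded with 1 μM Fluo-8 AM; calcium oscillations recorded by FLIPR once per second in Mg-free HBSS with 2 mM CaCl2, 20 mM HEPES, pH 7.4. Two acquisitions ("Acute", 500 sec, compound added at 250 sec; "20 min"), ± Kv7 blocker XE-991.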

A further assay concerns the target T1, Kv7.2/7.3 (Homo sapiens, UniProt O43525+O43526).
T1 construct: expressed in transfected cells; host or cells: HEK293
In words: Kv7.2/3 assay (FLIPR potassium assay, agonist mode). To be noted: Kv7.2/7.3 activation; HEK293 cells, human KCNQ2 and KCNQ3. The format is cell-based. How it is done:
HEK293 cells were stably transfected with the appropriate ion channel cDNA(s) (human KCNQ2 and KCNQ3 genes). Cells were cultured in Dulbecco's Modified Eagle Medium/Nutrient mixture F-12 (D-MEM/F-12) supplemented with 10% fetal bovine serum, 100 U/mL penicillin G sodium, 100 µg/mL streptomycin sulfate and selection antibiotics. FLIPR Test Procedure: For FLIPR assay, cells were plated in 384-well black clear-bottomed microtiter plates (BD Biocoat Poly-D-Lysine Multiwell Cell Culture Plate) at 15'000 to 30'000 cells per well. Cells were incubated at 37° C. overnight or until cells reached sufficient density in the wells (near confluent monolayer) to use in fluorescence assays. […] Assays were performed with the FLIPR potassium assay kit (Molecular Devices) according to the manufacturer's instructions. Dye-loading: Growth media was removed and replaced with 20 μL of dye loading buffer for 60 min at room temperature. FLIPR Recording (agonist mode): Stock solutions of test compounds were prepared at a concentration of 33.3 mM in DMSO. 5 μL of 5× concentrated test, vehicle, or control compounds solutions prepared in the stimulation buffer (K^+-free buffer with 5 mM TI^+) were added to each well and fluorescence recording was continued for 5 min. The agonist effect (EC50 and % effect) of test or control compounds on Kv7 channels was determined as follows: Raw data was exported using Screenworks® 4.2 software and the fluorescence traces were analysed using Microsoft Excel (Microsoft Corp., Redmond, Wash.). The test compounds responses were expressed as % of maximum response of the control compound Flupirtine (Sigma-Aldrich), which was tested at concentrations ranging from 0.03 to 100 μM. Concentration-response data were fitted to a Hill equation. Non-linear least squares fits were made assuming a simple binding model. If appropriate, fits were weighted by the standard deviation. No assumptions about the fit parameters were made; the fit parameters were determined by the algorithm.

Where [2] appears, read: Rattus norvegicus, 20 min, AUC of fluorescence measured 20 min after compound addition, read-out: FLIPR: IC50 [nM] 20 min.
Setting [3] is: Rattus norvegicus, Acute phase, ratio of AUC fluorescence before and after compound addition, read-out: FLIPR: IC50 [nM] acute.

The IC50 is the concentration that inhibits the measured activity by half. What is called EC50 is the concentration at which the effect is half-maximal. Read a high EC50 as a need for much substance. Take `O=C(NCc1cccc(C(F)(F)F)c1)NC1CC2(CCC2)C1` [Example 1, 1-Spiro[3.3]hept-2-yl-3-(3-trifluoromethyl-benzyl)-urea]: the figures for the IC50 in assay [1] (setting [2]) and in assay [1] (setting [3]) were 20 nM and 27 nM, respectively. The compound further displayed a concentration for a half-maximal effect (EC50) at Kv7.2/7.3 of 0.03 µM.

On to `O=C(NCc1ccnc(OCC(F)(F)F)c1)NC1CC2(CCC2)C1` [Example 103, 1-Spiro[3.3]hept-2-yl-3-[2-(2,2,2-trifluoro-ethoxy)-pyridin-4-ylmethyl]-urea], for which the IC50 in assay [1] (setting [2]) turned out to be 7.4 nM; in assay [1] (setting [3]) it was 4.8 nM. The compound also yielded a concentration giving a half-maximal response (EC50) on Kv7.2/7.3 of 0.0015 µM.

In the case of `Cc1nc(CNC(=O)NC2CC3(CCC3)C2)cc(OCC(F)(F)F)n1` [Example 60, 1-[2-Methyl-6-(2,2,2-trifluoro-ethoxy)-pyrimidin-4-ylmethyl]-3-spiro[3.3]hept-2-yl-urea], the figures for the IC50 in assay [1] (setting [2]) and in assay [1] (setting [3]) were 144 nM and 109 nM, respectively. The same compound gave an EC50 at Kv7.2/7.3 of 0.042 µM.

`O=C(NCc1cccc(C2(C(F)(F)F)CC2)c1)NC1CC2(CCC2)C1` [Example 37, 1-Spiro[3.3]hept-2-yl-3-[3-(1-trifluoromethyl-cyclopropyl)-benzyl]-urea]: the half-inhibitory concentration (IC50) in assay [1] (setting [2]) amounted to 8.1 nM; in assay [1] (setting [3]), 10 nM. On Kv7.2/7.3, this compound had an EC50 of 0.0015 µM.

`O=C(NCc1ccnc(NCC(F)(F)F)c1)NC1CC2(CCC2)C1` [Example 116, 1-Spiro[3.3]hept-2-yl-3-[2-(2,2,2-trifluoro-ethylamino)-pyridin-4-ylmethyl]-urea]: the IC50 in assay [1] (setting [2]) was 609 nM; in assay [1] (setting [3]), 530 nM. This compound had an EC50 at Kv7.2/7.3 of 0.161 µM.

As for `C[C@H](NC(=O)NC1CC2(CCC2)C1)c1ccc(F)c(OCC(F)(F)F)c1` (single isomer, unassigned) [Example 177], the values for the IC50 in assay [1] (setting [2]) and in assay [1] (setting [3]) were 24 nM and 22 nM, respectively. For the same compound, the concentration for a half-maximal effect (EC50) at Kv7.2/7.3 turned out to be 0.007 µM.

Regarding `C[C@H](NC(=O)NC1CC2(CCC2)C1)c1cccc(C(F)(F)F)c1` (single isomer, unassigned) [Example 175], the IC50 stood at 5.5 nM in assay [1] (setting [2]) and 9 nM in assay [1] (setting [3]). For the same compound, on Kv7.2/7.3, the half-maximal effective concentration (EC50) was 0.03 µM.

With `CN(C)CC(NC(=O)NC1CC2(CCC2)C1)c1ccnc(OCC(F)(F)F)c1` (racemic) [Example 94, (±)-1-{2-Dimethylamino-1-[2-(2,2,2-trifluoro-ethoxy)-pyridin-4-yl]-ethyl}-3-spiro[3.3]hept-2-yl-urea], the IC50 in assay [1] (setting [2]) worked out at 117 nM; in assay [1] (setting [3]), 197 nM.

Regarding `Cc1nc(OCC(F)(F)F)cc(C(CO)NC(=O)NC2CC3(CCC3)C2)n1` (racemic) [Example 82, (±)-1-{2-Hydroxy-1-[2-methyl-6-(2,2,2-trifluoro-ethoxy)-pyrimidin-4-yl]-ethyl}-3-spiro[3.3]hept-2-yl-urea], the half-maximal inhibitory concentration (IC50) in assay [1] (setting [2]) came out at 59 nM; in assay [1] (setting [3]) it was 66 nM.

Turning to `CC(Oc1cc(F)cc(CNC(=O)NC2CC3(CCC3)C2)c1)C(F)(F)F` (racemic) [Example 110, (±)-1-[3-Fluoro-5-(2,2,2-trifluoro-1-methyl-ethoxy)-benzyl]-3-spiro[3.3]hept-2-yl-urea], the results for the IC50 in assay [1] (setting [2]) and in assay [1] (setting [3]) were 62 nM and 88 nM, respectively.

For the compound `O=C(NCc1cccc(OC(F)(F)F)c1F)NC1CC2(CC2)C1` [Example 134, 1-(2-Fluoro-3-trifluoromethoxy-benzyl)-3-spiro[2.3]hex-5-yl-urea], the results for the half-inhibitory concentration (IC50) in assay [1] (setting [2]) and in assay [1] (setting [3]) were 82 nM and 63 nM, respectively.

On to `CC(NC(=O)NC1CC2(CC2)C1)c1cccc2c1OC(F)(F)O2` (racemic) [Example 121, (±)-1-[1-(2,2-Difluoro-benzo[1,3]dioxol-4-yl)-ethyl]-3-spiro[2.3]hex-5-yl-urea], for which the concentration for half-maximal inhibition (IC50) came out at 1210 nM in assay [1] (setting [2]) and 990 nM in assay [1] (setting [3]).

With `O=C(NCc1cccc(COC(F)(F)F)c1)NC1CC2(CCC2)C1` [Example 43, 1-Spiro[3.3]hept-2-yl-3-(3-trifluoromethoxymethyl-benzyl)-urea], the IC50 in assay [1] (setting [2]) was found to be 22 nM; in assay [1] (setting [3]), 16 nM.

On to `CC(Oc1cccc(C2(NC(=O)NC3CC4(CCC4)C3)CC2)c1)C(F)(F)F` (racemic) [Example 111, (±)-1-Spiro[3.3]hept-2-yl-3-{1-[3-(2,2,2-trifluoro-1-methyl-ethoxy)-phenyl]-cyclopropyl}-urea], for which the half-inhibitory concentration (IC50) in assay [1] (setting [2]) was determined as 34 nM; in assay [1] (setting [3]), 26 nM.

Take `CC(NC(=O)NC1CC2(CCC2)C1)c1cc(OCC(F)(F)F)ccc1Cl` (racemic) [Example 39, (±)-1-{1-[2-Chloro-5-(2,2,2-trifluoro-ethoxy)-phenyl]-ethyl}-3-spiro[3.3]hept-2-yl-urea]: the IC50 worked out at 571 nM in assay [1] (setting [2]) and 487 nM in assay [1] (setting [3]).

`O=C(NCc1cccc(C(F)(F)F)c1)NC1CC2(C1)CC2(F)F` (single isomer, unassigned) [Example 5, 1-(1,1-Difluoro-spiro[2.3]hex-5-yl)-3-(3-trifluoromethyl-benzyl)-urea]: the IC50 in assay [1] (Acute phase, ratio of AUC fluorescence before and after compound addition, read-out: FLIPR: IC50 [nM] acute) was 82 nM; in assay [1] (setting [2]) it was 156 nM.

With `CC(NC(=O)NC1CC2(CC2)C1)c1ccnc(OC(F)F)c1` (racemic) [Example 139, (±)-1-[1-(2-Difluoromethoxy-pyridin-4-yl)-ethyl]-3-spiro[2.3]hex-5-yl-urea], the IC50 in assay [1] (setting [2]) came to 365 nM; in assay [1] (setting [3]), 186 nM.

On to `O=C(NCc1cccc(OC(F)(F)F)c1)NC1CC2(CC2)C1` [Example 156, 1-Spiro[2.3]hex-5-yl-3-(3-trifluoromethoxy-benzyl)-urea], for which the IC50 in assay [1] (setting [2]) is 83 nM; in assay [1] (setting [3]) it was 60 nM.

On to `CC(Oc1nccc(CNC(=O)NC2CC3(CCC3)C2)n1)C(F)(F)F` (racemic) [Example 118, (±)-1-Spiro[3.3]hept-2-yl-3-[2-(2,2,2-trifluoro-1-methyl-ethoxy)-pyrimidin-4-ylmethyl]-urea], for which the values for the 50% inhibitory concentration (IC50) in assay [1] (setting [2]) and in assay [1] (setting [3]) were 81 nM and 116 nM, respectively.

Regarding `N#CCC(NC(=O)NC1CC2(CCC2)C1)c1cccc(C(F)(F)F)c1` (racemic) [Example 67, (±)-1-[2-Cyano-1-(3-trifluoromethyl-phenyl)-ethyl]-3-spiro[3.3]hept-2-yl-urea], the half-maximal inhibitory concentration (IC50) in assay [1] (setting [2]) came to 11 nM; in assay [1] (setting [3]), 10 nM.

Regarding `COCC(NC(=O)NC1CC2(CCC2)C1)c1cc(OCC(F)(F)F)ncn1` (racemic) [Example 78, (±)-1-{2-Methoxy-1-[6-(2,2,2-trifluoro-ethoxy)-pyrimidin-4-yl]-ethyl}-3-spiro[3.3]hept-2-yl-urea], the half-maximal inhibitory concentration (IC50) in assay [1] (setting [2]) is 7.2 nM; in assay [1] (setting [3]), 9.4 nM.

As for `CC(NC(=O)NC1CC2(C1)CC(F)(F)C2)c1cccc(C(F)(F)F)c1` (racemic) [Example 161, (±)-1-(6,6-Difluoro-spiro[3.3]hept-2-yl)-3-[1-(3-trifluoromethyl-phenyl)-ethyl]-urea], the half-maximal inhibitory concentration (IC50) in assay [1] (setting [2]) was 97 nM; in assay [1] (setting [3]), 78 nM.

Consider `O=C(NCc1ccc(F)c(C(F)(F)F)c1)NC1CC2(CCC2)C1` [Example 17, 1-(4-Fluoro-3-trifluoromethyl-benzyl)-3-spiro[3.3]hept-2-yl-urea], for which the IC50 worked out at 145 nM in assay [1] (setting [2]) and 141 nM in assay [1] (setting [3]).

Values taken from patent US20230136562A1, “SPIROUREA DERIVATIVES” (Idorsia Pharmaceuticals Ltd, priority 2020, published 2023).
